Experimental data from ChEMBL document CHEMBL3745682, “Pivotal role of glycogen synthase kinase-3: A therapeutic target for Alzheimer's disease” (Eur J Med Chem, 2016).

Assays:
[1] = target: T1, Glycogen synthase kinase-3 (Homo sapiens, UniProt P49840+P49841); type: protein assay
Description: Inhibition of glycogen synthase kinase-3 (unknown origin)

[2] = target: T2, Glycogen synthase kinase-3 beta (Homo sapiens, UniProt P49841)
Description: Competitive inhibition of glycogen synthase kinase-3 beta (unknown origin) using GS-1 as substrate after 30 mins by scintillation counting analysis in presence of [gamma-32P]-ATP

[3] = target: T2, Glycogen synthase kinase-3 beta; assay: Inhibition of glycogen synthase kinase-3 beta (unknown origin) using GS-1 as substrate after 20 mins by scintillation counting analysis in presence of [gamma-32P]-ATP
[4] = target: T1, Glycogen synthase kinase-3; assay: Competitive inhibition of glycogen synthase kinase-3 (unknown origin) in presence of ATP; type: protein assay

T2 sequence (P49841 whole entry): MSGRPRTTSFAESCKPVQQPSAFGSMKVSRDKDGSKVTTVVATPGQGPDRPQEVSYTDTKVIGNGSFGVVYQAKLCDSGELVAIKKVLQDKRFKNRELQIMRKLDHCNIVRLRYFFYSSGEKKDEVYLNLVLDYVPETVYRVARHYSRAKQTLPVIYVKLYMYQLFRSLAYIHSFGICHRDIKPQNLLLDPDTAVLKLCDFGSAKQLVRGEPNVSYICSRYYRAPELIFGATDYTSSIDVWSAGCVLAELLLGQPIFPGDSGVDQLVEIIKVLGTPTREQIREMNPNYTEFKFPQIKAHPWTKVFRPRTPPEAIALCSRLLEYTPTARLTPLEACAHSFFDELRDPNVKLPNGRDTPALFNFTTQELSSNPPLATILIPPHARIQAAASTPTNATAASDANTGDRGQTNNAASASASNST

CC(=O)C1=C(c2cn(C)c3ccccc23)C(=O)NC1=O
IC50 [1]: 4.47 µM

Br.Br.c1ccc(C/N=C2\NC(c3ccccc3)N(c3ccccc3)S2)cc1 (centres undefined)
IC50 [1]: 1.28 µM

O=C1Nc2ccccc2/C1=C1/Nc2cc(Br)ccc2C1=O
IC50 [2]: 0.004 µM

Br.CCOC(=O)C/N=C1\NC(c2ccccc2)N(c2ccccc2)S1 (centres undefined)
IC50 [1]: 7.05 µM

Clc1cccc(C2=NC(c3ccccc3)=NN(c3ccccc3)c3ccccc32)c1
IC50 [1]: 3.38 µM

O=S=C(CCl)c1ccc(Cl)cc1
IC50 [3]: > 100 µM

O=C(CBr)c1ccc(C2C(=O)c3ccccc3C2=O)cc1
IC50 [3]: 100 µM

O=C1Nc2ccccc2/C1=C1/Nc2ccccc2C1=O [INDIRUBIN]
IC50 [2]: 0.004 µM

COc1ccc(CNC(=O)Nc2nc(C)c(C(C)=O)s2)cc1
IC50 [4]: 0.4 µM
